Measured values as given in US11090304B2 (Amgen Inc., priority 2018, dated 2021).
Where two headings read alike, the source gives them in different places.

Legend:
[1] = system: Phosphorylation of ERK1/2 in MIA PaCa-2 cells; experiment: Phospho-ERK1/2 MSD assay in MIA PaCa-2 cells; type: cell-based; conditions: read-out: p-ERK IC50 (2 h; MIA PaCa-2), 2 h compound treatment
How it was run: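 In the procedure, cells were plated a day ahead at 25,000 per well. Next, a dilution series of compound in growth medium was added for 2 or 4 h. EGF (10 ng/mL) stimulation for 10 min preceded washing and RIPA lysis. Lysate phospho-ERK1/2 was read by MSD, with IC50 derived by 4-parameter logistic analysis.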

[2] = target: GDP-bound KRAS protein (aa 1-169), containing both G12C and C118A amino acid substitutions (Homo sapiens, UniProt P01116, C118A/G12C); experiment: Coupled nucleotide exchange assay (SOS-mediated, AlphaScreen); type: biochemical; conditions: 5 min compound pre-incubation
GDP-bound KRAS protein (aa 1-169), containing both G12C and C118A amino acid substitutions, sequence (P01116 1-169 isoform P01116-2 G12C/C118A): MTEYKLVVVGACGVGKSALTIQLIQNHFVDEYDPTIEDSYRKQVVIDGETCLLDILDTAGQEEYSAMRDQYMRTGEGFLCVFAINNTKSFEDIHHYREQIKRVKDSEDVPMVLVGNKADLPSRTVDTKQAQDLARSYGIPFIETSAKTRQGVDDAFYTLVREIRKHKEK

Compound	IC50 ([1]; Homo sapiens, MIA PaCa-2, 2 h)	Coupled exchange IC50 (5 min) [2]	IC50 [1]
C=CC(=O)N1[C@@H]2CCC[C@H]1CN(c1nc(=O)n(-c3c(C)ccnc3C(C)C)c3nc(-c4ccccc4F)c(Cl)cc13)C2 (single isomer, unassigned) [Example 78-2, (M)-6-chloro-7-(2-fluorophenyl)-1-(4-methyl-2-(2-propanyl)-3-pyridinyl)-4-(9-(2-propenoyl)-3,9-diazabicyclo[3.3.1]nonan-3-yl)pyrido[2,3-d]pyrimidin-2(1H)-one]	376 nM	0.436 | nda μM	
C=CC(=O)N1CCN(c2nc(=O)n(-c3scnc3CC)c3nc(-c4c(O)cccc4F)c(Cl)cc23)[C@@H](C)C1 [Example 60-22, 6-chloro-1-(4-ethyl-1,3-thiazol-5-yl)-7-(2-fluoro-6-hydroxyphenyl)-4-((2S)-2-methyl-4-(2-propenoyl)-1-piperazinyl)pyrido[2,3-d]pyrimidin-2(1H)-one]	433 nM	0.159 | nda μM	
C=CC(=O)N1CCN(c2nc(=O)n(-c3ccccc3C(C)C)c3nc(-c4c(O)cccc4F)c(F)cc23)[C@@H](C)C1 (single isomer, unassigned) [Example 57-6-1]		3.163 | nda μM	2090 nM
C=CC(=O)N1CCN(c2nc(=O)n(-c3c(C)cccc3C3CC3)c3nc(-c4c(O)cccc4F)c(Cl)cc23)[C@@H](C)C1 (single isomer, unassigned) [Example 55-15-1]		0.169 | nda μM	206 nM
C=CC(=O)N1CCN(c2nc(=O)n(-c3nccnc3C3CC3)c3nc(-c4ccccc4F)c(Cl)cc23)[C@@H](C)C1 [Example 60-10, 6-chloro-1-(3-cyclopropyl-2-pyrazinyl)-7-(2-fluorophenyl)-4-((2S)-2-methyl-4-(2-propenoyl)-1-piperazinyl)pyrido[2,3-d]pyrimidin-2(1H)-one]	156 nM	0.328 | nda μM	
C=CC(=O)N1CCN(c2nc(=O)n(-c3ccccc3S(F)(F)(F)(F)F)c3nc(-c4c(O)cccc4F)c(Cl)cc23)[C@@H](C)C1 (single isomer, unassigned) [Example 56-1-2]	145 nM	0.068 | nda μM	
C=CC(=O)N1CCN(c2nc(=O)n(-c3nccnc3CC)c3nc(-c4ccccc4F)c(Cl)cc23)[C@@H](C)C1 [Example 54-38, 6-chloro-1-(3-ethyl-2-pyrazinyl)-7-(2-fluorophenyl)-4-((2S)-2-methyl-4-(2-propenoyl)-1-piperazinyl) pyrido[2,3-d]pyrimidin-2(1H)-one]	297 nM	0.651 | nda μM	
C=CC(=O)N1CCN(c2nc(=O)n(-c3c(C)ncnc3C(C)C)c3nc(-c4cc(C)ccc4F)c(Cl)cc23)[C@@H](C)C1 [Example 55-40, 6-chloro-7-(2-fluoro-5-methylphenyl)-1-(4-methyl-6-(2-propanyl)-5-pyrimidinyl)-4-((2S)-2-methyl-4-(2-propenoyl)-1-piperazinyl)pyrido[2,3-d]pyrimidin-2(1H)-one]	149 nM	0.1 | nda μM	
C=CC(=O)N1CCN(c2nc(=O)n(-c3c(C)cc(O)nc3C(C)C)c3nc(-c4ccccc4F)c(Cl)cc23)[C@@H](C)C1 [Example 137, 6-chloro-7-(2-fluorophenyl)-1-(4-methyl-6-oxo-2-(2-propanyl)-1,6-dihydro-3-pyridinyl)-4-((2S)-2-methyl-4-(2-propenoyl)-1-piperazinyl)pyrido[2,3-d]pyrimidin-2(1H)-one]	1790 nM	0.5 | nda μM	
C=CC(=O)N1CCN(c2nc(=O)n(-c3c(C)ccnc3C(C)C)c3nc(-c4cc(C(=O)NC5CC5)ccc4F)c(Cl)cc23)[C@@H](C)C1 (atropisomer, axis not shown; (M)) [Example 73-10, (M)-3-(6-chloro-1-(4-methyl-2-(2-propanyl)-3-pyridinyl)-4-((2S)-2-methyl-4-(2-propenoyl)-1-piperazinyl)-2-oxo-1,2-dihydropyrido[2,3-d]pyrimidin-7-yl)-N-cyclopropyl-4-fluorobenzamide]	544 nM	0.385 | nda μM	
C=CC(=O)N1CCN(c2nc(=O)n(-c3c(C)ccnc3CC)c3nc(-c4c(O)cccc4F)c(F)cc23)[C@@H](C)C1 (single isomer, unassigned) [Example 57-1-1]	630 nM	0.524 | nda μM	
C=CC(=O)N1CCN(c2nc(=O)n(-c3scnc3C(C)C)c3cc(-c4ccccc4F)c(Cl)cc23)[C@@H](C)C1 [Example 105, 6-Chloro-7-(2-fluorophenyl)-4-((2S)-2-methyl-4-(2-propenoyl)-1-piperazinyl)-1-(4-(2-propanyl)-1,3-thiazol-5-yl)-2(1H)-quinazolinone]	65 nM	0.051 | nda μM	
C=CC(=O)N1CCN(c2nc(=O)n(-c3ncsc3C(C)C)c3nc(-c4c(O)cccc4F)c(Cl)cc23)[C@@H](C)C1 [Example 55-17, 6-chloro-7-(2-fluoro-6-hydroxyphenyl)-4-((2S)-2-methyl-4-(2-propenoyl)-1-piperazinyl)-1-(5-(2-propanyl)-1,3-thiazol-4-yl)pyrido[2,3-d]pyrimidin-2(1H)-one]	123 nM	0.18 | nda μM	
C=CC(=O)N1CCN(c2nc(=O)n(-c3c(C)cccc3C3CC3)c3nc(-c4c(O)cccc4F)c(F)cc23)[C@@H](C)C1 [Example 58-13, 1-(2-cyclopropyl-6-methylphenyl)-6-fluoro-7-(2-fluoro-6-hydroxyphenyl)-4-((2S)-2-methyl-4-(2-propenoyl)-1-piperazinyl)pyrido[2,3-d]pyrimidin-2(1H)-one]	263 nM	0.809 | nda μM	
C=CC(=O)N1CCN(c2nc(=O)n(-c3c(C)cccc3C(C)C)c3nc(-c4nc(N)ccc4F)c(Cl)cc23)[C@@H](C)C1 [Example 70-4, 7-(6-amino-3-fluoro-2-pyridinyl)-6-chloro-1-(2-methyl-6-(2-propanyl)phenyl)-4-((2S)-2-methyl-4-(2-propenoyl)-1-piperazinyl)pyrido[2,3-d]pyrimidin-2(1H)-one]	280 nM	0.398 | nda μM	
C=CC(=O)N1CCN(c2nc(=O)n(-c3c(C)noc3C(C)C)c3nc(-c4ccc(F)cc4F)c(Cl)cc23)[C@@H](C)C1 [Example 55-12, 6-chloro-7-(2,4-difuorophenyl)-1-(3-methyl-5-(2-propanyl)-1,2-oxazol-4-yl)-4-((2S)-2-methyl-4-(2-propenoyl)-1-piperazinyl)pyrido[2,3-d]pyrimidin-2(1H)-one]	775 nM	0.583 | nda μM	
C=CC(=O)N1CCN(c2nc(=O)n(-c3c(C)cccc3C3CC3)c3nc(-c4c(O)cccc4F)c(F)cc23)[C@@H](C)C1 (single isomer, unassigned) [Example 58-13-2]	371 nM	0.26 | nda μM	
C=CC(=O)N1CCN(c2nc(=O)n(-c3c(C)ccnc3C(C)C)c3nc(-c4ccccc4F)c(Cl)cc23)C(C(F)(F)F)C1 (single isomer, unassigned) [Example 78-9, (M)-6-chloro-7-(2-fluorophenyl)-1-(4-methyl-2-(2-propanyl)-3-pyridinyl)-4-(4-(2-propenoyl)-2-(trifluoromethyl)-1-piperazinyl)pyrido[2,3-d]pyrimidin-2(1H)-one]	348 nM	0.515 | nda μM	
C=CC(=O)N1CCN(c2nc(=O)n(-c3c(C)ccnc3C(C)C)c3nc(-c4c(O)cccc4F)c(C)cc23)[C@@H](C)C1 [Example 74-3, 7-(2-fluoro-6-hydroxyphenyl)-6-methyl-1-(4-methyl-2-(2-propanyl)-3-pyridinyl)-4-((2S)-2-methyl-4-(2-propenoyl)-1-piperazinyl)pyrido[2,3-d]pyrimidin-2(1H)-one]	347 nM	0.136 | nda μM	
C=CC(=O)N1CCN(c2nc(=O)n(-c3c(OC)ncnc3C(C)C)c3nc(-c4ccccc4F)c(Cl)cc23)[C@@H](C)C1 [Example 54-107, 6-chloro-7-(2-fluorophenyl)-1-(4-methoxy-6-(2-propanyl)-5-pyrimidinyl)-4-((2S)-2-methyl-4-(2-propenoyl)-1-piperazinyl) pyrido[2,3-d]pyrimidin-2(1H)-one]	99 nM	0.159 | nda μM	
C=CC(=O)N1CCN(c2nc(=O)n(-c3c(C)ccnc3C(C)C)c3nc(-c4c(C)cccc4O)c(F)cc23)[C@@H](C)C1 (atropisomer, axis not shown; (M)) [Example 72-4, (M)-6-fluoro-7-(2-hydroxy-6-methylphenyl)-1-(4-methyl-2-(2-propanyl)-3-pyridinyl)-4-((2S)-2-methyl-4-(2-propenoyl)-1-piperazinyl)pyrido[2,3-d]pyrimidin-2(1H)-one]	115 nM	0.08 | nda μM	
C=CC(=O)N1CCN(c2nc(=O)n(-c3ccccc3C(C)C)c3nc(-c4ccccc4F)c(C)cc23)[C@@H](C)C1 [Example 74-1, 7-(2-Fluorophenyl)-6-methyl-4-((2S)-2-methyl-4-(2-propenoyl)-1-piperazinyl)-1-(2-(2-propanyl)phenyl)pyrido[2,3-d]pyrimidin-2(1H)-one]	621 nM	0.951 | nda μM	
C=CC(=O)N1CCN(c2nc(=O)n(-c3c(OC)cccc3C(C)C)c3nc(-c4ccccc4F)c(Cl)cc23)[C@@H](C)C1 [Example 60-19, 6-chloro-7-(2-fluorophenyl)-1-(2-methoxy-6-(2-propanyl)phenyl)-4-((2S)-2-methyl-4-(2-propenoyl)-1-piperazinyl)pyrido[2,3-d]pyrimidin-2(1H)-one]	156 nM	0.137 | nda μM	
C=CC(=O)N1CCN(c2nc(=O)n(-c3c(C(C)C)ccnc3C)c3nc(-c4ccccc4F)c(F)cc23)[C@@H](C)C1 (single isomer, unassigned) [Example 58-16-2]	317 nM	0.315 | nda μM	
